Reference: patent US11395857B2, “Radiolabeled melanocortin 1 receptor-specific alpha-melanocyte-stimulating hormone analogues for imaging or therapy” (PROVINCIAL HEALTH SERVICES AUTHORITY, priority 2018, dated 2022)

Legend:
[1] = tested on: B16F10 mouse melanoma; assay: Biodistribution of 177Lu-labeled αMSH analogues in mice bearing B16F10 mouse melanoma; format: in vivo, C57BL/6J mice; conditions: among six αMSH analogues
Method: The B16-F10 mouse melanoma cells were cultured and inoculated in mice as described in Example 1.
For biodistribution studies, approximately 1-2 MBq of ^177Lu-labeled αMSH analogues via tail vein under anesthesia. At 1, 4, 24, and 120 h p.i., the mice were euthanized by CO2 inhalation. Organs/tissues were harvested and the radioactivity was measured as described in Example 1.

[2] = Biodistribution of 177Lu-labeled αMSH analogues in mice bearing SK-MEL-1 human melanoma; conditions: male, mouse, total radioactivity; for tissue to tissue ratio at 1 h: 1 h p.i.; for tissue to tissue ratio at 1 h / tissue to tissue ratio at 4 h / tissue to tissue ratio at 24 h / tissue to tissue ratio at 120 h: NRG mice, SK-MEL-1 melanoma; for tissue to tissue ratio at 4 h: 4 h p.i.; for tissue to tissue ratio at 24 h: 24 h p.i.; for tissue to tissue ratio at 120 h: 120 h p.i.
Method: The SK-MEL-1 human melanoma cell line (HTB-67) was obtained commercially from ATCC. SK-MEL-1 cells were cultured in Eagle's Minimum Essential Medium (StemCell Technologies) under the same conditions as described in Example 1. Immunodeficient NOD.Cg-Rag1tm1Mom I12rgtm1Wjl/SzJ (NRG) male mice were obtained from an in-house breeding colony at the BC Cancer Research Centre. For tumor implantation, male NRG mice were anesthetized by inhalation with 2% isoflurane, and 5 million SK-MEL-1 cells were inoculated subcutaneously on the right dorsal flank. Mice were used for imaging or biodistribution studies when the tumors reached 6-8 mm in diameter in 16-20 days.
Biodistribution studies were performed as described in Example 3.

[3] = NRG (NOD.Cg-Rag1tm1Mom I12rgtm1Wjl/SzJ), fat, iv
[4] = NRG (NOD.Cg-Rag1tm1Mom I12rgtm1Wjl/SzJ), seminal glands, iv
[5] = NRG (NOD.Cg-Rag1tm1Mom Il2rgtm1Wjl/SzJ), SK-MEL-1 tumour
[6] = NRG (NOD.Cg-Rag1tm1Mom Il2rgtm1Wjl/SzJ), adrenal glands
[7] = NRG (NOD.Cg-Rag1tm1Mom Il2rgtm1Wjl/SzJ), blood
[8] = NRG (NOD.Cg-Rag1tm1Mom Il2rgtm1Wjl/SzJ), bone
[9] = NRG (NOD.Cg-Rag1tm1Mom Il2rgtm1Wjl/SzJ), brain
[10] = NRG (NOD.Cg-Rag1tm1Mom Il2rgtm1Wjl/SzJ), heart
[11] = NRG (NOD.Cg-Rag1tm1Mom Il2rgtm1Wjl/SzJ), intestine
[12] = NRG (NOD.Cg-Rag1tm1Mom Il2rgtm1Wjl/SzJ), kidneys
[13] = NRG (NOD.Cg-Rag1tm1Mom Il2rgtm1Wjl/SzJ), liver
[14] = NRG (NOD.Cg-Rag1tm1Mom Il2rgtm1Wjl/SzJ), lungs
[15] = NRG (NOD.Cg-Rag1tm1Mom Il2rgtm1Wjl/SzJ), muscle
[16] = NRG (NOD.Cg-Rag1tm1Mom Il2rgtm1Wjl/SzJ), pancreas
[17] = NRG (NOD.Cg-Rag1tm1Mom Il2rgtm1Wjl/SzJ), spleen
[18] = NRG (NOD.Cg-Rag1tm1Mom Il2rgtm1Wjl/SzJ), stomach
[19] = NRG (NOD.Cg-Rag1tm1Mom Il2rgtm1Wjl/SzJ), testes
[20] = NRG (NOD.Cg-Rag1tm1Mom Il2rgtm1Wjl/SzJ), thyroid
[21] = NRG (NOD.Cg-Rag1tm1Mom Il2rgtm1Wjl/SzJ), tumour/blood
[22] = NRG (NOD.Cg-Rag1tm1Mom Il2rgtm1Wjl/SzJ), tumour/kidney
[23] = NRG (NOD.Cg-Rag1tm1Mom Il2rgtm1Wjl/SzJ), tumour/muscle
[24] = NRG (NOD.Cg-Rag1tm1Mom Il2rgtm1Wjl/SzJ), urine

CCCC[C@H](NC(=O)CN1CCC(NC(=O)[C@H](CCCCNC(=O)CN2CCN(CC(=O)O)CCN(CC(=O)O)CCN(CC(=O)O)CC2)NC(=O)[C@H](CCC(=O)O)NC(=O)CCCc2ccc(I)cc2)CC1)C(=O)N[C@H]1CC(=O)NCCCC[C@@H](C(N)=O)N(C)C(=O)[C@H](Cc2c[nH]c3ccccc23)NC(=O)[C@H](CCCNC(=N)N)N(C)C(=O)[C@@H](Cc2ccccc2)NC(=O)[C@H](Cc2c[nH]cn2)NC1=O [CCZ01118, [4-(p-iodophenyl)butanoyl]-Glu-Lys(DOTA)-Pip-Nle-cyclo[Asp-His-D-Phe-N-Me-Arg-Trp-N-Me-Lys]-NH2]
Improvement in tumour uptake retention [1]: showed the most improvement in tumour uptake retention

CCCC[C@H](NC(=O)CN1CCC(NC(=O)[C@H](CCCCNC(=O)CN2CCN(CC(=O)O)CCN(CC(=O)O)CCN(CC(=O)O)CC2)NC(=O)CNC(=O)CCCc2ccc(I)cc2)CC1)C(=O)N[C@H]1CC(=O)NCCCC[C@@H](C(N)=O)N(C)C(=O)[C@H](Cc2c[nH]c3ccccc23)NC(=O)[C@H](CCCNC(=N)N)N(C)C(=O)[C@@H](Cc2ccccc2)NC(=O)[C@H](Cc2c[nH]cn2)NC1=O [^177Lu-labeled CCZ01148, metal not drawn]
tissue uptake at 1 h [2, 3]: 2.4 ± 0.39 %ID/g
tissue uptake at 4 h [2, 3]: 2.69 ± 0.38 %ID/g
tissue uptake at 24 h [2, 3]: 2.1 ± 0.53 %ID/g
tissue uptake at 120 h [2, 3]: 1.13 ± 0.55 %ID/g
tissue uptake at 1 h [2, 4]: 1.81 ± 0.6 %ID/g
tissue uptake at 4 h [2, 4]: 1.66 ± 0.51 %ID/g
tissue uptake at 24 h [2, 4]: 1.22 ± 0.11 %ID/g
tissue uptake at 120 h [2, 4]: 0.44 ± 0.12 %ID/g
tissue uptake at 1 h [2, 5]: 6.62 ± 1.37 %ID/g
tissue uptake at 4 h [2, 5]: 9.46 ± 1.59 %ID/g
tissue uptake at 24 h [2, 5]: 30.5 ± 2.72 %ID/g
tissue uptake at 120 h [2, 5]: 26.5 ± 4.52 %ID/g
tissue uptake at 1 h [2, 6]: 6.47 ± 2.97 %ID/g
tissue uptake at 4 h [2, 6]: 5.69 ± 2.19 %ID/g
tissue uptake at 24 h [2, 6]: 5.66 ± 1.07 %ID/g
tissue uptake at 120 h [2, 6]: 4.04 ± 1.06 %ID/g
tissue uptake at 1 h [2, 7]: 32 ± 5.85 %ID/g
tissue uptake at 4 h [2, 7]: 22.7 ± 1.5 %ID/g
tissue uptake at 24 h [2, 7]: 14.7 ± 0.98 %ID/g
tissue uptake at 120 h [2, 7]: 1.93 ± 0.4 %ID/g
tissue uptake at 1 h [2, 8]: 1.98 ± 0.8 %ID/g
tissue uptake at 4 h [2, 8]: 1.38 ± 0.29 %ID/g
tissue uptake at 24 h [2, 8]: 1.21 ± 0.2 %ID/g
tissue uptake at 120 h [2, 8]: 0.49 ± 0.17 %ID/g
tissue uptake at 1 h [2, 9]: 0.49 ± 0.06 %ID/g
tissue uptake at 4 h [2, 9]: 0.39 ± 0.05 %ID/g
tissue uptake at 24 h [2, 9]: 0.32 ± 0.03 %ID/g
tissue uptake at 120 h [2, 9]: 0.13 ± 0.02 %ID/g
tissue uptake at 1 h [2, 10]: 7.94 ± 1.58 %ID/g
tissue uptake at 4 h [2, 10]: 5.71 ± 0.51 %ID/g
tissue uptake at 24 h [2, 10]: 4.57 ± 0.51 %ID/g
tissue uptake at 120 h [2, 10]: 1.4 ± 0.25 %ID/g
tissue uptake at 1 h [2, 11]: 3.1 ± 1 %ID/g
tissue uptake at 4 h [2, 11]: 2.26 ± 0.56 %ID/g
tissue uptake at 24 h [2, 11]: 1.89 ± 0.29 %ID/g
tissue uptake at 120 h [2, 11]: 0.54 ± 0.1 %ID/g
tissue uptake at 1 h [2, 12]: 12.5 ± 3.49 %ID/g
tissue uptake at 4 h [2, 12]: 9.78 ± 1.28 %ID/g
tissue uptake at 24 h [2, 12]: 9.72 ± 1.38 %ID/g
tissue uptake at 120 h [2, 12]: 4.08 ± 0.78 %ID/g
tissue uptake at 1 h [2, 13]: 7.36 ± 1.58 %ID/g
tissue uptake at 4 h [2, 13]: 7.11 ± 1.5 %ID/g
tissue uptake at 24 h [2, 13]: 8.35 ± 1.86 %ID/g
tissue uptake at 120 h [2, 13]: 4.38 ± 1.08 %ID/g
tissue uptake at 1 h [2, 14]: 17.6 ± 5.68 %ID/g
tissue uptake at 4 h [2, 14]: 11.8 ± 2.51 %ID/g
tissue uptake at 24 h [2, 14]: 9.06 ± 1.04 %ID/g
tissue uptake at 120 h [2, 14]: 2.35 ± 0.54 %ID/g
tissue uptake at 1 h [2, 15]: 2.13 ± 0.4 %ID/g
tissue uptake at 4 h [2, 15]: 1.96 ± 0.3 %ID/g
tissue uptake at 24 h [2, 15]: 1.5 ± 0.19 %ID/g
tissue uptake at 120 h [2, 15]: 0.31 ± 0.07 %ID/g
tissue uptake at 1 h [2, 16]: 3.09 ± 0.53 %ID/g
tissue uptake at 4 h [2, 16]: 2.55 ± 0.15 %ID/g
tissue uptake at 24 h [2, 16]: 2.27 ± 0.34 %ID/g
tissue uptake at 120 h [2, 16]: 0.7 ± 0.13 %ID/g
tissue uptake at 1 h [2, 17]: 5.65 ± 1.09 %ID/g
tissue uptake at 4 h [2, 17]: 4.21 ± 1.31 %ID/g
tissue uptake at 24 h [2, 17]: 6.19 ± 1 %ID/g
tissue uptake at 120 h [2, 17]: 6.86 ± 2.08 %ID/g
tissue uptake at 1 h [2, 18]: 1.03 ± 0.45 %ID/g
tissue uptake at 4 h [2, 18]: 1.02 ± 0.53 %ID/g
tissue uptake at 24 h [2, 18]: 1.44 ± 0.28 %ID/g
tissue uptake at 120 h [2, 18]: 0.47 ± 0.12 %ID/g
tissue uptake at 1 h [2, 19]: 4.23 ± 0.94 %ID/g
tissue uptake at 4 h [2, 19]: 5.09 ± 0.82 %ID/g
tissue uptake at 24 h [2, 19]: 4.89 ± 0.87 %ID/g
tissue uptake at 120 h [2, 19]: 3.03 ± 0.37 %ID/g
tissue uptake at 1 h [2, 20]: 7.45 ± 1.35 %ID/g
tissue uptake at 4 h [2, 20]: 6.83 ± 0.84 %ID/g
tissue uptake at 24 h [2, 20]: 11.6 ± 1.26 %ID/g
tissue uptake at 120 h [2, 20]: 12.4 ± 2.26 %ID/g
tissue to tissue ratio at 1 h [2, 21]: 0.21 ± 0.02
tissue to tissue ratio at 4 h [2, 21]: 0.42 ± 0.04
tissue to tissue ratio at 24 h [2, 21]: 2.08 ± 0.26
tissue to tissue ratio at 1 h [2, 22]: 0.54 ± 0.07
tissue to tissue ratio at 4 h [2, 22]: 0.96 ± 0.04
tissue to tissue ratio at 24 h [2, 22]: 3.19 ± 0.46
tissue to tissue ratio at 120 h [2, 22]: 6.57 ± 0.71
tissue to tissue ratio at 1 h [2, 23]: 3.11 ± 0.29
tissue to tissue ratio at 4 h [2, 23]: 4.85 ± 0.53
tissue to tissue ratio at 24 h [2, 23]: 20.5 ± 2.51
tissue to tissue ratio at 120 h [2, 23]: 91.3 ± 35.8
excreta dose per gram or mL at 1 h [2, 24]: 51 ± 21.8 %ID/g
excreta dose per gram or mL at 4 h [2, 24]: 11.2 ± 6.54 %ID/g
excreta dose per gram or mL at 24 h [2, 24]: 20.4 ± 7.69 %ID/g
excreta dose per gram or mL at 120 h [2, 24]: 6.46 ± 1.57 %ID/g
